For data set [1], the target named is Kv1.3 potassium channel (Homo sapiens (Human), UniProt P22001). Nature of the data set: Kv1.3 potassium channel blocker activity, automated whole-cell patch clamp in CHO-K1 cells stably expressing Kv1.3. The note with it: Patchliner patch clamp. It is filed as cell-based. As for the experimental part:
Example 21. Evaluation of Kv1.3 Potassium Channel Blocker Activities
This assay is used to evaluate the disclosed compounds' activities as Kv1.3 potassium channel blockers.
CHO-K1 cells stably expressing Kv1.3 were grown in DMEM containing 10% heat-inactivated FBS, 1 mM sodium pyruvate, 2 mM L-glutamine, and G418 (500 μg/ml). Cells were grown in culture flasks at 37° C. in a 5% C02-humidified incubator.
The cells were bathed in an extracellular solution containing 140 mM NaCl, 4 mM KCl, 2 mM CaCl2), 1 mM MgCl2, 5 mM glucose, 10 mM HEPES; pH adjusted to 7.4 with NaOH; 295-305 mOsm. The internal solution contained 50 mM KCl, 10 mM NaCl, 60 mM KF, 20 mM EGTA, 10 mM HEPES; pH adjusted to 7.2 with KOH; 285 mOsm. All compounds were dissolved in DMSO at 30 mM. Compound stock solutions were freshly diluted with external solution to concentrations of 30 nM, 100 nM, 300 nM, 1 μM, 3 μM, 10 μM, 30 μM and 100 μM. The highest content of DMSO (0.3%) was present in 100 μM.
The currents were evoked by applying 100 ms depolarizing pulses from −90 mV (holding potential) to +40 mV were applied with 0.1 Hz frequency. Control (compound-free) and compound pulse trains for each compound concentration applied contained 20 pulses. 10-second breaks were used between pulse trains (see Table A below).
Whole-cell current recordings and compound application were enabled by means of an automated patch clamp platform Patchliner (Nanion Technologies GmbH). EPC 10 patch clamp amplifier (HEKA Elektronik Dr. Schulze GmbH) along with Patchmaster software (HEKA Elektronik Dr. Schulze GmbH) was used for data acquisition. Data were sampled at 10 kHz without filtering. Passive leak currents were subtracted online using a P/4 procedure (HEKA Elektronik Dr. Schulze GmbH). Increasing compound concentrations were applied consecutively to the same cell without washouts in between. Total compound incubation time before the next pulse train was not longer than 10 seconds. Peak current inhibition was observed during compound equilibration.
(§1) AUC and peak values were obtained with Patchmaster (HEKA Elektronik Dr. Schulze GmbH). To determine IC50, the last single pulse in the pulse train corresponding to a given compound concentration was used. Obtained AUC and peak values in the presence of compound were normalized to control values in the absence of compound. Using Origin (OridinLab), IC50 was derived from data fit to Hill equation: Icompound/Icontrol=(100-A)/(1+([compound]/IC50)nH)+A, where IC50 value is the concentration at which current inhibition is half-maximal, [compound] is the applied compound concentration, A is the fraction of current that is not blocked and nH is the Hill coefficient.

The target of data set [2] is hERG channel (Homo sapiens (Human), UniProt Q12809). Nature of the data set: hERG electrophysiology, automated whole-cell patch clamp in CHO-K1 cells stably expressing hERG. It is filed as cell-based. The note with it: Patchliner patch clamp. As for the experimental part: Example 22. Evaluation of hERG Activities
hERG channel, sequence (Q12809 whole entry): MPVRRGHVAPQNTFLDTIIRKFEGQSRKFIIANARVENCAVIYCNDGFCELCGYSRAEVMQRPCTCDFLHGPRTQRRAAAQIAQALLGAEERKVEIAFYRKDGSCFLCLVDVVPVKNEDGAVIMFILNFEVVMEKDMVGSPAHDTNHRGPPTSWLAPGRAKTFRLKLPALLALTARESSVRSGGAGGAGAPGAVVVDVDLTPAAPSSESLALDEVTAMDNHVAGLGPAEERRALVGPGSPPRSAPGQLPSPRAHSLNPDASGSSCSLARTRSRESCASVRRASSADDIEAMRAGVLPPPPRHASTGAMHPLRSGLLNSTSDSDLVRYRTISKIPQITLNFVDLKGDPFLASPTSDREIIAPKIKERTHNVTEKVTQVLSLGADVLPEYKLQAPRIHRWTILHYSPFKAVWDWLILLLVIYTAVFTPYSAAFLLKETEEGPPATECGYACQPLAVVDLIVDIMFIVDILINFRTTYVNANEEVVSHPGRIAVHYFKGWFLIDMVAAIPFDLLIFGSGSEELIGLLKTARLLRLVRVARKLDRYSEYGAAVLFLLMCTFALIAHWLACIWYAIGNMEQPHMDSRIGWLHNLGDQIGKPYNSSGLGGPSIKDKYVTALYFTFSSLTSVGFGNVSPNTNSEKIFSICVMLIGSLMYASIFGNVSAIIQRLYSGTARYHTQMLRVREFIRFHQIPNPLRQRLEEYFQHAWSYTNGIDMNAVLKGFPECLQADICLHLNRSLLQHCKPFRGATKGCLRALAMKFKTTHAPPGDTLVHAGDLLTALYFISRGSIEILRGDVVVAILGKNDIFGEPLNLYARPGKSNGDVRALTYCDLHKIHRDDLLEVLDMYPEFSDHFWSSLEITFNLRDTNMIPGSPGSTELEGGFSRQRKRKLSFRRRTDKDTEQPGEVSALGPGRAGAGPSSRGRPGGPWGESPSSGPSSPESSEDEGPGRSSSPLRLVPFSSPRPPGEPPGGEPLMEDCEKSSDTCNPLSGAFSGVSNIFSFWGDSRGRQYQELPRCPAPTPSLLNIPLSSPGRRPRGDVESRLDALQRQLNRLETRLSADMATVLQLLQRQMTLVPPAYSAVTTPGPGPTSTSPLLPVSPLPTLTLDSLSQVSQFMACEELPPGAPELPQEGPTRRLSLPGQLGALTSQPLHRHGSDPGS
This assay is used to evaluate the disclosed compounds's inhibition activities against the hERG channel.
This assay is used to evaluate the disclosed compounds' inhibition activities against the hERG channel.
CHO-K1 cells stably expressing hERG were grown in Ham's F-12 Medium with glutamine containing 10% heat-inactivated FBS, 1% penicillin/streptomycin, hygromycin (100 μg/ml) and G418 (100 μg/ml). Cells were grown in culture flasks at 37° C. in a 5% CO2— humidified incubator.
The cells were bathed in an extracellular solution containing 140 mM NaCl, 4 mM KCl, 2 mM CaCl2), 1 mM MgCl2, 5 mM Glucose, 10 mM HEPES; pH adjusted to 7.4 with NaOH; 295-305 mOsm. The internal solution contained 50 mM KCl, 10 mM NaCl, 60 mM KF, 20 mM EGTA, 10 mM HEPES; pH adjusted to 7.2 with KOH; 285 mOsm. All compounds were dissolved in DMSO at 30 mM. Compound stock solutions were freshly diluted with external solution to concentrations of 30 nM, 100 nM, 300 nM, 1 μM, 3 μM, 10 μM, 30 μM and 100 μM. The highest content of DMSO (0.3%) was present in 100 μM.
The voltage protocol (see Table B) was designed to simulate voltage changes during a cardiac action potential with a 300 ms depolarization to +20 mV (analogous to the plateau phase of the cardiac action potential), a repolarization for 300 ms to −50 mV (inducing a tail current) and a final step to the holding potential of −80 mV. The pulse frequency was 0.3 Hz. Control (compound-free) and compound pulse trains for each compound concentration applied contained 70 pulses.
Whole-cell current recordings and compound application were enabled by means of an automated patch clamp platform Patchliner (Nanion). EPC 10 patch clamp amplifier (HEKA) along with Patchmaster software (HEKA Elektronik Dr. Schulze GmbH) was used for data acquisition. Data were sampled at 10 kHz without filtering. Increasing compound concentrations were applied consecutively to the same cell without washouts in between.
as §1, with “PEAK” for “peak”, “IC50” for “IC50,”, “Icompound/Icontrol=(100−A)/(1+([compound]/IC50)nH)+A,” for “Icompound/Icontrol=(100-A)/(1+([compound]/IC50)nH)+A,”, “IC50” for “IC50 value”

Data on 13 compounds can be found in patent publication US20240368078A1, “ARYL HETEROCYCLIC COMPOUNDS AS Kv1.3 POTASSIUM SHAKER CHANNEL BLOCKERS” (D.E. SHAW RESEARCH, LLC, priority 2021, published 2024).

Kv1.3 potassium channel, sequence (P22001 whole entry): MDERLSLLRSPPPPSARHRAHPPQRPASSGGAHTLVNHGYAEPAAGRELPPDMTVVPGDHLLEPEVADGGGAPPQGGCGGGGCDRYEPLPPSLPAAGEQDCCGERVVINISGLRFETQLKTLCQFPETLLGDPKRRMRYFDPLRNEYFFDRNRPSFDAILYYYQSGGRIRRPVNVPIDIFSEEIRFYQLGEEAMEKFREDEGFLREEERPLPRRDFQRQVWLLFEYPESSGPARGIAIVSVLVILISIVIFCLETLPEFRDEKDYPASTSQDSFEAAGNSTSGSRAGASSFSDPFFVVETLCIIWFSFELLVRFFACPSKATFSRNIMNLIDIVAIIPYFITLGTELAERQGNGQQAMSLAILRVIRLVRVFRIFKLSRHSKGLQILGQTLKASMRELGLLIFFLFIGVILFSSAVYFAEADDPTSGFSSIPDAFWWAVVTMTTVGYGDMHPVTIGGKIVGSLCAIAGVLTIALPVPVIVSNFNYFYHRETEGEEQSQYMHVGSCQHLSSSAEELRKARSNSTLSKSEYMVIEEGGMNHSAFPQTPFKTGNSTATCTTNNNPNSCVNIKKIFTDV

As for `CC(C)(O)CNC(=O)C[C@H]1CN[C@@H](c2c(O)ccc(Cl)c2Cl)C1` [Compound 66, 2-((3S,5R)-5-(2,3-dichloro-6-hydroxyphenyl)pyrrolidin-3-yl)-N-(2-hydroxy-2-methylpropyl)acetamide], the half-maximal inhibitory concentration (IC50) was below 1 µM in data set [1] and above 100 µM in data set [2].

Turning to `CN(C)C(=O)CC1CN[C@@H](c2c(O)ccc(Cl)c2Cl)C1` (stereo partly drawn) [Compound 37, 2-((5R)-5-(2,3-dichloro-6-hdyroxyphenyl)pyrrolidin-3-yl)-N,N-dimethylacetamide], the IC50 in data set [1] is below 1 µM; in data set [2], above 30 µM.

`O=C(CC1CN[C@@H](c2c(O)ccc(Cl)c2Cl)C1)N1CC[C@@H](O)C1` (stereo partly drawn) [Compound 39, 2-((5R)-5-(2,3-dichloro-6-hydroxyphenyl)pyrrolidin-3-yl)-1-((R)-3-hydroxypyrrolidin-1-yl)ethan-1-one]: the IC50 is below 0.1 µM in data set [1] and above 100 µM in data set [2].

In the case of `C[C@@H](C(N)=O)[C@H]1CN[C@@H](c2c(O)ccc(Cl)c2Cl)C1` (single isomer, unassigned) [Compound 44], the IC50 is below 1 µM in data set [1] and above 100 µM in data set [2].

Turning to `O=C(CO)NC[C@H]1CN[C@@H](c2c(O)ccc(Cl)c2Cl)C1` [Compound 49, N-(((3R,5R)-5-(2,3-dichloro-6-hydroxyphenyl)pyrrolidin-3-yl)methyl)-2-hydroxyacetamide], the concentration for half-maximal inhibition (IC50) was below 1 µM in data set [1] and above 100 µM in data set [2].

With `Oc1ccc(Cl)c(Cl)c1[C@H]1C[C@@H](Cc2cn[nH]c2)CN1` [Compound 54, 3,4-dichloro-2-[(2R,4R)-4-(1H-pyrazol-4-ylmethyl)pyrrolidin-2-yl] phenol], the figures for the IC50 in data set [1] and in data set [2] were below 0.1 µM and above 10 µM, respectively.

`C[C@@H](O)CNC(=O)C[C@H]1CN[C@@H](c2c(O)ccc(Cl)c2Cl)C1` [Compound 64, 2-((3S,5R)-5-(2,3-dichloro-6-hydroxyphenyl)pyrrolidiin-3-yl)-N-((R)-2-hydroxypropyl)acetamide]: the IC50 in data set [1] was below 0.1 µM; in data set [2], above 100 µM.

`O=C(C[C@H]1CN[C@@H](c2c(O)ccc(Cl)c2Cl)C1)N1CC[C@@H]1CO` [Compound 67, 2-((3S,5R)-5-(2,3-dichloro-6-hydroxyphenyl)pyrrolidin-3-yl)-1-((R)-2-(hydroxymethyl)azetidin-1-yl)ethan-1-one]: the half-maximal inhibitory concentration (IC50) in data set [1] was below 1 µM; in data set [2], above 100 µM.

As to `O=C(C[C@H]1CN[C@@H](c2c(O)ccc(Cl)c2Cl)C1)N1CC(O)C1` [Compound 56, 2-((3S,5R)-5-(2,3-dichloro-6-hydroxyphenyl)pyrrolidin-3-yl)-1-(3-hydroxyazetidin-1-yl)ethan-1-one], the results for the 50% inhibitory concentration (IC50) in data set [1] and in data set [2] were below 0.1 µM and above 100 µM, respectively.

In the case of `CN(C)C(=O)C[C@H]1CN[C@@H](c2c(O)ccc(Cl)c2Cl)C1` [Compound 41, 2-((3S,5R)-5-(2,3-dichloro-6-hydroxyphenyl)pyrrolidin-3-yl)-N,N-dimethyalcetamide], the figures for the IC50 in data set [1] and in data set [2] were below 1 µM and above 30 µM, respectively.

Turning to `CN(CCO)C(=O)CC1CN[C@@H](c2c(O)ccc(Cl)c2Cl)C1` (stereo partly drawn) [Compound 35, 2-((5R)-5-(2,3-dichloro-6-hydroxyphenyl)pyrrolidin-3-yl)-N-(2-hydroxyethyl)-N-methylacetamide], the IC50 is below 0.1 µM in data set [1] and above 30 µM in data set [2].

Consider `CC(C)(CO)NC(=O)C[C@H]1CN[C@@H](c2c(O)ccc(Cl)c2Cl)C1` [Compound 71, 2-((3S,5R)-5-(2,3-dichloro-6-hydroxyphenyl)pyrrolidin-3-yl)-N-(1-hydroxy-2-methylpropan-2-yl)acetamide], for which the IC50 in data set [1] is below 1 µM; in data set [2] it was above 100 µM.

With `O=C(CC1CN[C@@H](c2c(O)ccc(Cl)c2Cl)C1)NCCO` (stereo partly drawn) [Compound 34, 2-((5R)-5-(2,3-dichloro-6-hydroxyphenyl)pyrrolidin-3-yl)-N-(2-hydroxyethyl)acetamide], the IC50 in data set [1] was below 0.1 µM; in data set [2], above 100 µM.
